Source: patent US9782368B2, “Use of N,N-bis-2-mercaptoethyl isophthalamide” (EMERAMED LIMITED, priority 2014, dated 2017)
Read-outs that look alike come from different tables or passages of the source.

Tests used:
[1] = Ascorbate depletion assay, CuSO4-sponsored oxidation, recycling of DHA; details: CuSO4 model
Method: (§1) The kinetics of ascorbate oxidation, sponsored by both 1 μM 9,10-PQ and 2 μM copper sulphate (CuSO4), was examined using the ascorbate depletion assay (Kelly et al, Res. Rep. Health Eff. Inst., 163, 3 (2011). 9,10-PQ was employed so that the action of NBMI could be examined in isolation of its chelation properties.
(§2) All experiments were performed in triplicate in UV 96 well flat-bottomed plates (Greiner bio-one) at a final volume of 200 μL. Exposures were initiated by the addition of 20 μL of a concentrated stock of ascorbate (2 mM) into each well containing 160 μL of Chelex-100 resin treated water (containing 10% DMSO), plus either 10 μL of water, CuSO4 stock solution at 4 mM or 9,10-PQ stock solution at 2 mM, and 10 μL of NMBI (4 mM and […]).
(§3) All solutions were prepared in Chelex-100 resin treated water (containing 10% DMSO). This yielded final concentrations in the wells of […], 2 μM CuSO4, or 1 μM 9,10-PQ and between 10 and 200 μM of NBMI.
(§4) Immediately prior to the addition of the ascorbate to each assay well, the plate was pre-incubated for 10 minutes at 37° C. in a plate reader (Spectra Max 190). During the exposure, the plate was maintained at this temperature. After addition of ascorbate, the concentration remaining in each well was monitored every 2 minutes for a period of two hours by measuring the absorbance at 265 nm. The ascorbate concentration was determined with reference to a standard curve, with the rate of ascorbate oxidation determined by performing a linear regression through the initial part of a concentration verses time plot using Microcal Software Limited's OriginLab (version 5.0). This was performed for each of the triplicates and the rate of ascorbate depletion was finally expressed as mean mol s 1×10^−9 depletion of ascorbate±standard deviation.
(§5) For the experiments in which the impact of adding NBMI to the ascorbate was measured, CuSO4 and 9,10-PQ depletion assays were examined later in the time course. The plates were ran with 190 μL only for the first 55-60 minutes, after which they were removed from the plate reader and 10 μL of either the NMBI or the known reducing agent, DTT stock solution, or water was added to each well. The plate was then returned to the plate reader and the absorbance at 265 nm monitored for a further 60 minutes.
(§6) The immediate increase in the measured ascorbate concentrations was determined and is referred to as the ‘jump’, as a measure of immediate recycling capacity. The sustained ‘increase’ over the remaining 60 minutes of the incubation was also determined.

[2] = Ascorbate depletion assay, 9,10-PQ-sponsored oxidation, recycling of DHA; details: 9,10-PQ model, 200 μM added at 60 minutes
Method: as §1, §2, §3, §4, §5, §6

[3] = tested on: cigarette smoke (CS)-induced airway disease; assay type: in vivo, BALB/c mice; details: for weight gained compared to start weight: CS-exposed
Method: The 14 day dose-finding study was therefore followed by a 90 day study using essentially the same apparatus and protocol described in Example 4 above. On this occasion, the 5 treatment groups were as follows: • 1. Daily exposure to clean air (Placebo Group; Gr. 1) • 2. Daily exposure to CS (CS-Exposed Placebo Group; Gr. 2) • 3. Daily exposure to CS; treated with NBMI at a 30 mg/kg dose (NBMI 30 mg/kg Group; Gr. 3) • 4. Daily exposure to CS; treated with NBMI at a 60 mg/kg dose (NBMI 60 mg/kg Group; Gr. 4) • 5. Daily exposure to CS; treated with NBMI at a 150 mg/kg dose (NBMI 150 mg/kg Group; Gr. 5) On Day 91, animals were weighed and anesthetised with pentobarbital sodium (90 mg/kg body weight, i.p.). Mice were tracheotomised with an 18-gauge cannula and mechanically ventilated in a quasi-sinusoidal fashion with a small animal ventilator (flexiVent™, SCIREQ®) at a frequency of 3 Hz and a tidal volume (VT) of 12 ml/kg body weight. A positive end-expiratory pressure of 3 cm H2O was applied. The animal's cardiac output was monitored throughout the respiratory mechanics assessment. Mice were paralysed with pancuronium (0.1 mg/kg body weight, i.p. (local suppliers)) before 4 sigh manoeuvres at 3×VT were performed at the beginning of the experiment to establish stable baseline respiratory mechanics and to ensure a similar volume history before the experiment. Dynamic lung mechanics were measured by applying a sinusoidal standardised breath and analysed using the single compartment model and multiple linear regression, giving respiratory resistance (RRS), elastance (ERS) and compliance (CRS). The measurement of RRS reflects both narrowing of the conducting airways and alterations in the lung. The measurement of CRS and ERS reflects only events in the lung periphery, particularly airway closure leading to lung unit de-recruitment. By contrast, a selective change in CRS is indicative of a more distal site of action. More thorough evaluations of lung mechanics were made using forced oscillation technique (FOT) according to Jonasson et al., Respir. Res., 9, 23 (2008) and Respir. Physiol. Neurobiol., 165, 229 (2009). The parameters obtained from the FOT measurements in this study were: Newtonian resistance (RN), tissue damping (G), which is closely related to tissue resistance and reflects energy dissipation in the lung tissues; and tissue elastance (H), which characterises tissue stiffness and reflects energy storage in the tissues. Dynamic pressure-volume (PV) curves were determined by inflating the lungs to a maximum pressure of 30 cm H2O, allowing passive exhalation using the computer-controlled Flexivent ventilator for measuring volume and pressure. Individual results from each animal were compiled. All PV-measurements were performed in triplicate. Quasi-static PV loops were obtained by a slow stepwise inflation and deflation of the lungs. PV loops were performed for PEEP-levels, 3 cm H2O. The shape factor (k) of the descending limb of the PV loop was calculated by fitting the data to the Salazar-Knowles equation. The value of the parameter k is believed to change characteristically with both fibrosis and emphysema. The quasi-static compliance (Cst) and elastance (Est) and the volume air inspired sufficient to reach 20 cm water were also obtained. Bronchoalveolar lavage (BAL) was carried out essentially as described in Example 4 above, as was flow cytometry analysis of cells from BAL and analysis of inflammatory mediators in BAL and serum. Frozen lung tissue was homogenised together with 1 mL PBS in a 2 mL tube, using a mixer mill (Retch mm400) for 2 minutes at 4° C. Immediately after homogenisation, the tube was centrifuged for 15 minutes (1500 rpm, 4° C.). The supernatant was removed and saved for protein concentration determination using a NanoDrop spectrophotometer (Proteins A280). After analysing the protein content, equal amounts of protein from each sample were saved for the transforming growth factor beta (TGFβ) 1-3 analysis. […]

## O=C(NCCS)c1cccc(C(=O)NCCS)c1 [NBMI, N,N-bis-2-mercaptoethyl isophthalamide]
[1]; 200 μM added at 60 minutes
  immediate 'jump' in ascorbate concentration: 24.98 ± 5.54 µM
  sustained 'increase' in ascorbate over remaining 60 minutes: 25.45 ± 2.45 µM
[1]; addition at 10, 20 and 30 minutes
  subsequent rate of oxidation after addition: quenched
[2]
  immediate rebound increase in ascorbate: 42.8 µM
  rate of ascorbate oxidation after addition: reduced relative to the first 60 minute period
[3]; 30, 60 and 150 mg/kg
  respiratory function (PV-curves) vs placebo group Gr. 2: did not display significantly changed respiratory function
[3]; 30, 60 and 150 mg/kg, Day 90
  macrophages in BAL fluid: did not have significantly lower numbers of macrophages
[3]; Day 90, Gr. 3, 30 mg/kg
  weight gained compared to start weight: 1.0 ± 0.4 g
[3]; Day 90, Gr. 4, 60 mg/kg
  weight gained compared to start weight: 0.7 ± 0.2 g
[3]; Day 90, Gr. 5, 150 mg/kg
  weight gained compared to start weight: 0.6 ± 0.2 g
[3]; FACS, NBMI-treated groups
  percentage of T helper (CD4+/CD3+) and T cytotoxic (CD8+/CD3+) lymphocytes in BAL fluid: not significant altered
[3]; Gr. 4, 60 mg/kg
  neutrophils in BAL fluid: tendency to a lower number of neutrophils
[3]; Gr. 5, 150 mg/kg
  neutrophils in BAL fluid: tendency to a lower number of neutrophils
[3]; Gr. 5, 150 mg/kg, p<0.01
  GM-CSF level in serum vs Gr. 2: lowered
[3]; Gr. 5, 150 mg/kg, p<0.05
  MIP-1β level in serum vs Gr. 2: lowered
[3]; NBMI-treated animals
  T cytotoxic (CD8+/CD3+) lymphocytes in BAL fluid vs Gr. 2: significant decrease
[3]; all NBMI-treated groups
  lymphocytes in BAL fluid (tendency): a lower number of lymphocytes
[3]; animals receiving NBMI
  TGFβ1-3 in lung homogenate vs Gr. 2: did not have significantly changed amount
